Results from the NIST ThermoML archive (doi:10.1021/je700294p).
Numbers after ± are expanded uncertainties.

How the values were obtained:
[1] = xn = mol fraction of the nth substance listed; conditions: 101 kPa, Liquid
[2] = excess molar enthalpy (molar enthalpy of mixing); xn = mol fraction of the nth substance listed; conditions: 101 kPa, Liquid

CCCC[n+]1cccc(C)c1.F[B-](F)(F)F [1-butyl-3-methylpyridinium tetrafluoroborate] + CCO
Conditions | excess molar enthalpy [kcal/mol] | mass density [kg/m3]
[1], 298.15 K, x1 = 0.0518 | – | 851.1 ± 0.8
[1], 298.15 K, x1 = 0.0719 | – | 872.9 ± 0.7
[1], 298.15 K, x1 = 0.1054 | – | 905.6 ± 0.7
[1], 298.15 K, x1 = 0.1999 | – | 975.5 ± 0.6
[1], 298.15 K, x1 = 0.2539 | – | 1006.2 ± 0.5
[1], 298.15 K, x1 = 0.3 | – | 1028.2 ± 0.6
[1], 298.15 K, x1 = 0.4054 | – | 1068.6 ± 0.6
[1], 298.15 K, x1 = 0.5082 | – | 1098.9 ± 0.7
[1], 298.15 K, x1 = 0.5895 | – | 1118 ± 0.7
[1], 298.15 K, x1 = 0.664 | – | 1133 ± 0.8
[1], 298.15 K, x1 = 0.7275 | – | 1144.5 ± 0.8
[1], 298.15 K, x1 = 0.7682 | – | 1151 ± 0.8
[1], 318.15 K, x1 = 0.0401 | – | 821.1 ± 0.8
[1], 318.15 K, x1 = 0.0671 | – | 851 ± 0.8
[1], 318.15 K, x1 = 0.0992 | – | 882.7 ± 0.7
[1], 318.15 K, x1 = 0.1497 | – | 924.5 ± 0.6
[1], 318.15 K, x1 = 0.2531 | – | 989.5 ± 0.5
[1], 318.15 K, x1 = 0.3062 | – | 1015.1 ± 0.5
[1], 318.15 K, x1 = 0.4041 | – | 1053 ± 0.6
[1], 318.15 K, x1 = 0.5002 | – | 1082.2 ± 0.7
[1], 318.15 K, x1 = 0.5998 | – | 1106.3 ± 0.8
[1], 318.15 K, x1 = 0.6632 | – | 1118.8 ± 0.8
[1], 318.15 K, x1 = 0.7118 | – | 1127.7 ± 0.8
[1], 318.15 K, x1 = 0.7904 | – | 1141 ± 0.9
[2], 298.15 K, x1 = 0.0052 | 0.0354 ± 0.00263 | –
[2], 298.15 K, x1 = 0.0159 | 0.0989 ± 0.00311 | –
[2], 298.15 K, x1 = 0.0279 | 0.148 ± 0.00382 | –
[2], 298.15 K, x1 = 0.0457 | 0.203 ± 0.00478 | –
[2], 298.15 K, x1 = 0.0691 | 0.26 ± 0.00574 | –
[2], 298.15 K, x1 = 0.0972 | 0.312 ± 0.00669 | –
[2], 298.15 K, x1 = 0.1132 | 0.338 ± 0.00741 | –
[2], 298.15 K, x1 = 0.1263 | 0.362 ± 0.00789 | –
[2], 298.15 K, x1 = 0.128 | 0.368 ± 0.00789 | –
[2], 298.15 K, x1 = 0.145 | 0.396 ± 0.00837 | –
[2], 298.15 K, x1 = 0.1585 | 0.405 ± 0.0086 | –
[2], 298.15 K, x1 = 0.1639 | 0.418 ± 0.00884 | –
[2], 298.15 K, x1 = 0.1838 | 0.445 ± 0.00932 | –
[2], 298.15 K, x1 = 0.2062 | 0.47 ± 0.01 | –
[2], 298.15 K, x1 = 0.2305 | 0.495 ± 0.0105 | –
[2], 298.15 K, x1 = 0.2577 | 0.515 ± 0.0108 | –
[2], 298.15 K, x1 = 0.2878 | 0.531 ± 0.0112 | –
[2], 298.15 K, x1 = 0.3217 | 0.544 ± 0.0115 | –
[2], 298.15 K, x1 = 0.3623 | 0.546 ± 0.0115 | –
[2], 298.15 K, x1 = 0.4085 | 0.527 ± 0.011 | –
[2], 298.15 K, x1 = 0.4689 | 0.484 ± 0.0103 | –
[2], 298.15 K, x1 = 0.5396 | 0.425 ± 0.00908 | –
[2], 298.15 K, x1 = 0.6277 | 0.348 ± 0.00741 | –
[2], 298.15 K, x1 = 0.7386 | 0.257 ± 0.0055 | –
[2], 298.15 K, x1 = 0.8712 | 0.14 ± 0.00335 | –
[2], 298.15 K, x1 = 0.9405 | 0.0727 ± 0.00191 | –
[2], 318.15 K, x1 = 0.0123 | 0.0626 ± 0.00239 | –
[2], 318.15 K, x1 = 0.0273 | 0.129 ± 0.00335 | –
[2], 318.15 K, x1 = 0.0472 | 0.201 ± 0.00478 | –
[2], 318.15 K, x1 = 0.0704 | 0.269 ± 0.00598 | –
[2], 318.15 K, x1 = 0.098 | 0.342 ± 0.00741 | –
[2], 318.15 K, x1 = 0.1279 | 0.411 ± 0.00884 | –
[2], 318.15 K, x1 = 0.1612 | 0.475 ± 0.01 | –
[2], 318.15 K, x1 = 0.1789 | 0.508 ± 0.0108 | –
[2], 318.15 K, x1 = 0.2034 | 0.544 ± 0.0115 | –
[2], 318.15 K, x1 = 0.2335 | 0.577 ± 0.012 | –
[2], 318.15 K, x1 = 0.2681 | 0.605 ± 0.0127 | –
[2], 318.15 K, x1 = 0.3063 | 0.627 ± 0.0129 | –
[2], 318.15 K, x1 = 0.3498 | 0.644 ± 0.0134 | –
[2], 318.15 K, x1 = 0.4055 | 0.645 ± 0.0134 | –
[2], 318.15 K, x1 = 0.4787 | 0.615 ± 0.0127 | –
[2], 318.15 K, x1 = 0.5648 | 0.549 ± 0.0115 | –
[2], 318.15 K, x1 = 0.6576 | 0.451 ± 0.00956 | –
[2], 318.15 K, x1 = 0.7668 | 0.326 ± 0.00693 | –
[2], 318.15 K, x1 = 0.881 | 0.184 ± 0.0043 | –
